{
  "source": "patent US20160038532A1",
  "about": "“Treatment of Multiple Sclerosis With Combination of Laquinimod and Glatiramer Acetate” (TEVA PHARMACEUTICAL INDUSTRIES, LTD., priority 2011, published 2016)",
  "key": {"MOG-induced EAE": {"test_system": "MOG-induced EAE", "assay": "MOG-induced EAE, lower doses of laquinimod with GA-blocking (Example 2.2)", "assay_type": "in vivo, C57B1/6 mice", "settings": "GA-blocking 12.5 mg/kg in inoculum day 0", "procedure": "MOG is a member of the immunoglobulin superfamily expressed exclusively in CNS myelin. It is one of the most encephalitogenic proteins and is widely used to induce EAE in different rodent strains. In C57BL/6 mice, immunization with the MOG peptide pMOG35-55 in CFA induces chronic progressive EAE.\n24 mg MOG was diluted in 8 ml PBS (3 mg/ml, stock solution). Groups 1, 3 and 5: 3.5 ml of stock solution was diluted 1:1 with PBS. […] 4.5 ml of MOG stock solution was added to this solution.\nThe high dose LAQ (5 mg/10 ml/kg) solution (40 mg in 80 ml DDW) was prepared once weekly and stored at room temperature. For the dose of 2.5 mg/kg LAQ, 25 ml of this solution were added to 25 ml DDW. For the dose 1 mg/kg 5 ml of stock solution (high dose) were added to 20 ml DDW. The compound was administered by gavage once daily during the whole experiment (30 days) at a volume of 0.2 ml/mouse.\nThe mice were observed daily from the 9th day post-EAE induction (first injection of MOG) and the EAE clinical signs were scored according to the grades described in the 2 above."}, "[1]": {"test_system": "relapsing remitting (RR) EAE", "assay": "Relapsing remitting EAE in Biozzi mice, combination study (Example 2.6)", "assay_type": "in vivo", "procedure": "EAE is an animal model for multiple sclerosis. In the Biozzi AB/H EAE mice, a RR EAE can be induced. […] Re-injection of an encephalitogen can induce a chronic relapsing disease that enables measuring long-term effects on subsequent relapses rather than immediate effects.\nThe EAE induction was performed according to procedure “RR-EAE.Biozzi” The Biozzi mice were weighed and injected subcutaneously and re-injected one week later with encephalitogenic agent (MSCH emulsion). 0.3 mL of the encephalitogenic agent containing 1.0 mg of MSCH and 200.0 μg of MT was injected subcutaneously, at two sites in the right flank of each mouse (0.15 mL at each site). The second injection was done in a similar manner in the left flank, one week later.\nOn the day of first injection of encephalotigen, the Biozzi mice were randomly allocated to eight treatment groups as follows: Tables 16-17.\nThe 5.0 mg/mL laquinimod stock solution was diluted 1:5 to yield 1 mg/mL.\nThe mice in all the groups were administered daily by oral gavage a volume dose level of […] of the respective test formulations from the day the mice are allocated to the treatment groups (first injection of encephalitogen) for 59 consecutive days until the termination of the study.\nThe mice were examined and scored according to the following table, until the termination of the study (60 days after initiation of treatment).\nThe activity of the test articles for the first and second phase of RR EAE was calculated by comparing the incidence of disease, mortality, onset and duration of disease, group mean score and mean maximal score to the control group. Calculations were carried separately and together for the first and the second relapse."}, "MSCH-induced EAE": {"test_system": "MSCH-induced EAE", "assay": "MSCH-induced EAE in CSJL mice (Example 2.7)", "assay_type": "in vivo, CSJL/F1 mice", "settings": "GA blocking 0.5 mg/kg (sub-optimal dose), with encephalitogen"}, "multiple sclerosis (MS)": {"test_system": "multiple sclerosis (MS)", "settings": "daily subcutaneous injections, 20 mg/injection; cited from earlier work"}, "[2]": {"settings": "first and second attacks together, GA 12.5 mg/kg oral daily 59 d"}, "[3]": {"settings": "first attack, GA 12.5 mg/kg oral daily"}, "[4]": {"settings": "second attack, GA 12.5 mg/kg oral daily"}},
  "note": "Marks after values point to notes of the source that are not given here.",
  "data": [
    {"substance": "L-glutamic acid polymer with L-alanine, L-lysine and L-tyrosine, acetate (salt) [GA]", "values": [
      {"measurement": "% inhibition compared to Control (GMS)", "setting": "MOG-induced EAE", "result": 77.5, "unit": "%"},
      {"measurement": "Group Mean Score", "setting": "MOG-induced EAE", "result": "0.73***"},
      {"measurement": "Incidence", "setting": "MOG-induced EAE", "result": "11/14"},
      {"measurement": "Mean Disease Duration", "setting": "MOG-induced EAE", "result": "7.1*** days"},
      {"measurement": "Mean Maximal Score", "setting": "MOG-induced EAE", "result": "2.18***"},
      {"measurement": "Mean Onset", "setting": "MOG-induced EAE", "result": "18.7*** days"},
      {"measurement": "GMS % inhibition", "setting": "[1]; [2]", "result": 21.7, "unit": "%"},
      {"measurement": "GMS value", "setting": "[1]; [2]", "result": 1.8},
      {"measurement": "Incidence", "setting": "[1]; [2]", "result": "12/14"},
      {"measurement": "Incidence % inhibition", "setting": "[1]; [2]", "result": 7.7, "unit": "%"},
      {"measurement": "MMS % inhibition", "setting": "[1]; [2]", "result": 0.0, "unit": "%"},
      {"measurement": "MMS value", "setting": "[1]; [2]", "result": 3.6},
      {"measurement": "Mean Duration", "setting": "[1]; [2]", "result": "23.8 ± 16.2", "unit": "days"},
      {"measurement": "% Inhibition 1 (incidence)", "setting": "[1]; [3]", "result": 7.7, "unit": "%"},
      {"measurement": "IMS % Inhibition 3", "setting": "[1]; [3]", "result": 15.6, "unit": "%"},
      {"measurement": "IMS value", "setting": "[1]; [3]", "result": "58.6 ± 70.5"},
      {"measurement": "Incidence", "setting": "[1]; [3]", "result": "12/14"},
      {"measurement": "MMS % Inhibition 2", "setting": "[1]; [3]", "result": 2.8, "unit": "%"},
      {"measurement": "MMS value", "setting": "[1]; [3]", "result": "3.5 ± 1.6"},
      {"measurement": "Mean Duration", "setting": "[1]; [3]", "result": "15.7 ± 14.0", "unit": "days"},
      {"measurement": "% Inhibition 1 (incidence)", "setting": "[1]; [4]", "result": 31.2, "unit": "%"},
      {"measurement": "IMS % Inhibition 3", "setting": "[1]; [4]", "result": 35.5, "unit": "%"},
      {"measurement": "IMS value", "setting": "[1]; [4]", "result": "30.5 ± 33.0"},
      {"measurement": "Incidence", "setting": "[1]; [4]", "result": "6/12"},
      {"measurement": "MMS % Inhibition 2", "setting": "[1]; [4]", "result": 31.0, "unit": "%"},
      {"measurement": "MMS value", "setting": "[1]; [4]", "result": "2.0 ± 1.7"},
      {"measurement": "Mean Duration", "setting": "[1]; [4]", "result": "9.4 ± 10.5", "unit": "days"},
      {"measurement": "% Inhibition 1 (incidence)", "setting": "MSCH-induced EAE", "result": 30.0, "unit": "%"},
      {"measurement": "GMS % Inhibition 3", "setting": "MSCH-induced EAE", "result": 61.9, "unit": "%"},
      {"measurement": "GMS value", "setting": "MSCH-induced EAE", "result": "1.6 ± 1.5"},
      {"measurement": "Incidence", "setting": "MSCH-induced EAE", "result": "7/10"},
      {"measurement": "MMS % Inhibition 2", "setting": "MSCH-induced EAE", "result": 42.0, "unit": "%"},
      {"measurement": "MMS value", "setting": "MSCH-induced EAE", "result": "2.9 ± 2.1"},
      {"measurement": "Mean Duration", "setting": "MSCH-induced EAE", "result": "5.8 ± 4.5", "unit": "days"},
      {"measurement": "Mean Onset", "setting": "MSCH-induced EAE", "result": "17.0 ± 4.9", "unit": "days"},
      {"measurement": "effect on relapse rates, progression of disability, new MRI lesions", "setting": "multiple sclerosis (MS)", "result": "reduce relapse rates"}
    ]}
  ]
}
